Experimental data taken from patent US9023852B2, “1, 2, 4-thiadiazol-5-ylpiperazine derivatives useful in the treatment of neurodegenerative diseases” (Remynd NV, priority 2011, dated 2015).

Each compound was assayed on M17—3TAU(P301L) cells (assay: Neuroblastoma tauopathy model: inhibition of TAU-induced cytotoxicity (LDH)). Conditions: Homo sapiens, 168 h; inhibition of TAU-induced toxicity (LDH), 7 days differentiation with retinoic acid.
Assay type: cell-based
Summary of the method: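 BE-M17 neuroblastoma cells stably expressing human TAU-P301L, differentiated with RA (2.5 μM in added medium) for 7 days at 37 °C with compounds at a range of concentrations. Cytotoxicity as supernatant LDH over total LDH (Cytotox 96); EC50 from dose-dependent inhibition curve.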

For `COc1ccc(CCN2CCN(c3nc(-c4cccc(OC)c4)ns3)CC2)cc1` [Example 18, 1-[2-(4-Methoxy-phenyl)-ethyl]-4-[3-(3-methoxy-phenyl)[1,2,4]thiadiazol-5-yl]-piperazine], which EC50 is on record?
The EC50 was 367 nM.

How did the EC50 turn out when `COc1cc(CCN2CCN(c3nc(-c4ccc(C)nc4)ns3)CC2)ccn1` [Example 97, 1-[2-(2-Methoxy-pyridin-4-yl)-ethyl]-4-[3-(6-methyl-pyridin-3-yl)-[1,2,4]thiadiazol-5-yl]-piperazine] was run?
The EC50 was 51.3 nM.

How did the EC50 turn out when `COc1cc(CCN2CCN(c3nc(-c4ccnc(Cl)c4)ns3)CC2)ccn1` [Example 168, 3-(2-chloropyridin-4-yl)-5-(4-(2-(2-methoxypyridin-4-yl)ethyl)piperazin-1-yl)-1,2,4-thiadiazole] was run?
The EC50 was 1.5 nM.

Which EC50 does the source give for `FC(F)(F)c1cccc(CCN2CCN(c3nc(-c4cccc(Cl)c4)ns3)CC2)c1` [Example 142, 1-[3-(3-Chloro-phenyl)-[1,2,4]thiadiazol-5-yl]-4-[2-(3-trifluoromethyl-phenyl)-ethyl]-piperazine] here?
The EC50 was 3.7 nM.

`COc1cc(CCN2CCN(c3nc(-c4cccc(Cl)c4)ns3)CC2)ccn1` [Example 89, 1-[3-(3-Chloro-phenyl)-[1,2,4]thiadiazol-5-yl]-4-[2-(2-methoxy-pyridin-4-yl)-ethyl]-piperazine] was tested. Which EC50 did it give?
Its EC50 is 1.6 nM.

With `Fc1ccc(CCN2CCN(c3nc(-c4cncc(Cl)c4)ns3)CC2)cc1F` [Example 160, 3-(5-chloropyridin-3-yl)-5-(4-(3,4-difluorophenethyl)piperazin-1-yl)-1,2,4-thiadiazole] as the compound, how does the EC50 read?
The EC50 was 0.4 nM.

Which EC50 does the source give for `COc1cccc(CCN2CCN(c3nc(-c4ccc(OC(F)(F)F)cc4)ns3)CC2)c1` [Example 36, 1-[2-(3-Methoxy-phenyl)-ethyl]-4-[3-(4-trifluoromethoxy-phenyl)-[1,2,4]thiadiazol-5-yl]-piperazine] here?
Its EC50 is 119 nM.

`Cc1ccccc1CN1CCN(c2nc(-c3cccc(F)c3)ns2)CC1` [Example 99, 1-[3-(3-Fluoro-phenyl)-[1,2,4]thiadiazol-5-yl]-4-(2-methyl-benzyl)-piperazine] was tested. Which EC50 did it give?
Its EC50 is 271 nM.

`COc1cccc(CCN2CCN(c3nc(-c4ccccc4OC)ns3)CC2)c1` [Example 35, 1-[2-(3-Methoxy-phenyl)-ethyl]-4-[3-(2-methoxy-phenyl)-[1,2,4]thiadiazol-5-yl]-piperazine] was tested. Which EC50 did it give?
Its EC50 is 3.5 nM.

Which EC50 does the source give for `COc1cc(CCN2CCN(c3nc(-c4ccnc(C)c4)ns3)CC2)ccn1` [Example 172, 5-(4-(2-(2-methoxypyridin-4-yl)ethyl)piperazin-1-yl)-3-(2-methylpyridin-4-yl)-1,2,4-thiadiazole] here?
The EC50 was 14.4 nM.

Which EC50 does the source give for `COc1ccc(CCCN2CCN(c3nc(-c4ccc(Cl)cc4)ns3)CC2)cc1` [Example 52, 1-[3-(4-Chloro-phenyl)-[1,2,4]thiadiazol-5-yl]-4-[3-(4-methoxy-phenyl)-propyl]-piperazine] here?
Its EC50 is 327 nM.

Which EC50 does the source give for `Cc1ccccc1CN1CCN(c2nc(-c3cccc(C#N)c3)ns2)CC1` [Example 119, 3-{5-[4-(2-Methyl-benzyl)-piperazin-1-yl]-[1,2,4]thiadiazol-3-yl}-benzonitrile] here?
Its EC50 is 25 nM.

Which EC50 does the source give for `Clc1ccc(CCN2CCN(c3nc(-c4cccc(Cl)c4)ns3)CC2)cc1` [Example 87, 1-[2-(4-Chloro-phenyl)-ethyl]-4-[3-(3-chloro-phenyl)-[1,2,4]thiadiazol-5-yl]-piperazine] here?
The EC50 was 13.1 nM.

How did the EC50 turn out when `COc1cccc(C(=O)CN2CCN(c3nc(-c4ccc(Cl)cc4)ns3)CC2)c1` [Example 60, 2-{4-[3-(4-Chloro-phenyl)-[1,2,4]thiadiazol-5-yl]-piperazin-1-yl}-1-(3-methoxy-phenyl)-ethanone] was run?
The EC50 was 41.2 nM.

How did the EC50 turn out when `Clc1ccc(-c2nsc(N3CCN(CCC4CCOCC4)CC3)n2)cc1` [Example 167, 3-(4-chlorophenyl)-5-(4-(2-(tetrahydro-2H-pyran-4-yl)ethyl)piperazin-1-yl)-1,2,4-thiadiazole] was run?
The EC50 was 5.9 nM.

With `Fc1ccc(CCN2CCN(c3nc(-c4cc(Cl)ccn4)ns3)CC2)cc1F` [Example 157, 3-(4-chloropyridin-2-yl)-5-(4-(3,4-difluorophenethyl)piperazin-1-yl)-1,2,4-thiadiazole] as the compound, how does the EC50 read?
The EC50 was 29 nM.

`COc1ccc(CCN2CCN(c3nc(-c4cc(Cl)cc(Cl)c4)ns3)CC2)cc1` [Example 46, 1-[3-(3,5-Dichloro-phenyl)-[1,2,4]thiadiazol-5-yl]-4-[2-(4-methoxy-phenyl)-ethyl]-piperazine] was tested. Which EC50 did it give?
Its EC50 is 31.2 nM.

`Fc1ccc(-c2nsc(N3CCN(CCc4cccc(C(F)(F)F)c4)CC3)n2)cc1F` [Example 158, 3-(3,4-difluorophenyl)-5-(4-(3-(trifluoromethyl)phenethyl)piperazin-1-yl)-1,2,4-thiadiazole] was tested. Which EC50 did it give?
Its EC50 is 998 nM.

How did the EC50 turn out when `Fc1ccc(CCN2CCN(c3nc(-c4ccc(F)c(F)c4)ns3)CC2)cc1` [Example 103, 1-[3-(3,4-Difluoro-phenyl)-[1,2,4]thiadiazol-5-yl]-4-[2-(4-fluoro-phenyl)-ethyl]-piperazine] was run?
Its EC50 is 3.4 nM.

For `COc1ccc(CCN2CCN(c3nc(-c4cnnc(C)c4)ns3)CC2)cc1` [Example 177, 5-(4-(4-methoxyphenethyl)piperazin-1-yl)-3-(6-methylpyridazin-4-yl)-1,2,4-thiadiazole], which EC50 is on record?
The EC50 was 1 nM.

With `COc1cc(CCN2CCN(c3nc(-c4ccc(F)c(F)c4)ns3)CC2)ccn1` [Example 106, 1-[3-(3,4-Difluoro-phenyl)-[1,2,4]thiadiazol-5-yl]-4-[2-(2-methoxy-pyridin-4-yl)-ethyl]-piperazine] as the compound, how does the EC50 read?
Its EC50 is 3 nM.

How did the EC50 turn out when `N#Cc1ccc(-c2nsc(N3CCN(CCc4cccc(C(F)(F)F)c4)CC3)n2)cc1` [Example 143, 4-(5-{4-[2-(3-Trifluoromethyl-phenyl)-ethyl]-piperazin-1-yl}-[1,2,4]thiadiazol-3-yl)-benzonitrile] was run?
Its EC50 is 143 nM.

`N#Cc1ccc(-c2nsc(N3CCN(CCc4ccc(C(F)(F)F)cc4)CC3)n2)cc1` [Example 147, 4-(5-{4-[2-(4-Trifluoromethyl-phenyl)-ethyl]-piperazin-1-yl}-[1,2,4]thiadiazol-3-yl)-benzonitrile] was tested. Which EC50 did it give?
The EC50 was 176 nM.

How did the EC50 turn out when `COc1cccc(CCN2CCN(c3nc(-c4ccc(C)cc4)ns3)CC2)c1` [Example 16, 1-[2-(3-Methoxy-phenyl)-ethyl]-4-(3-p-tolyl-[1,2,4]thiadiazol-5-yl)-piperazine] was run?
The EC50 was 65.3 nM.

For `COc1ccc(CCN2CCN(c3nc(-c4ccccc4Cl)ns3)CC2)cc1` [Example 58, 1-[3-(2-Chloro-phenyl)-[1,2,4]thiadiazol-5-yl]-4-[2-(4-methoxy-phenyl)-ethyl]-piperazine], which EC50 is on record?
The EC50 was 2.2 nM.

Which EC50 does the source give for `COc1ccc(CCN2CCN(c3nc(-c4ccc(OC(F)(F)F)cc4)ns3)CC2)cc1` [Example 37, 1-[2-(4-Methoxy-phenyl)-ethyl]-4-[3-(4-trifluoromethoxy-phenyl)-[1,2,4]thiadiazol-5-yl]-piperazine] here?
Its EC50 is 2.9 nM.

For `Cc1ccc(-c2nsc(N3CCN(CCc4ccc(Cl)c(Cl)c4)CC3)n2)cc1` [Example 5, 1-[2-(3,4-Dichloro-phenyl)-ethyl]-4-(3-p-tolyl-[1,2,4]thiadiazol-5-yl)-piperazine], which EC50 is on record?
The EC50 was 396 nM.

Which EC50 does the source give for `Cc1ccc(-c2nsc(N3CCN(CCCc4ccccc4)CC3)n2)cc1` [Example 155, 5-(4-(3-phenylpropyl)piperazin-1-yl)-3-(p-tolyl)-1,2,4-thiadiazole] here?
The EC50 was 976 nM.

How did the EC50 turn out when `Fc1ccc(CCN2CCN(c3nc(-c4ccc(Cl)cc4)ns3)CC2)cc1F` [Example 134, 1-[3-(4-Chloro-phenyl)-[1,2,4]thiadiazol-5-yl]-4-[2-(3,4-difluoro-phenyl)-ethyl]-piperazine] was run?
The EC50 was 37.8 nM.
